Measurements: patent US7759366B2 (Sanofi-Aventis, priority 2006, dated 2010)
Counter-ions that a name gives are not always drawn. Like-named read-outs stand apart in the source and are kept apart here.

Assays:
hCB2R = hCB2R (Homo sapiens, UniProt P34972); assay: In vitro functional assay (FLIPR, intracellular Ca2+) with recombinant HEK293 cells, CB2;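 also: intracellular Ca2+ was tracked with the fluorescent dye Fluo-4 loaded into the cells before test substance addition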
Description: Function-testing assays were performed by means of the FLIPR technique (“Fluorometric Imaging Plate Reader”, Molecular Devices Corp.).
To this end, ligand-induced changes in the intracellular concentration of Ca^2+ in recombinant HEK293 cells, which expressed both a cannabinoid receptor (CB1 or CB2) and G-protein Galpha16, were determined. For the studies, cells were sown into 96-well microtiter plates (60 000 cells/well) and left to grow overnight. The medium was removed and the cells were incubated in buffer which contained the fluorescent dye Fluo-4. After this loading with dye, the cells were washed, test substance was added dissolved in buffer, the mixture was incubated for 20 minutes, a known cannabinoid receptor agonist as a reference agonist was added in buffer and, finally, the changes in the intracellular Ca^2+ concentration were measured in the FLIPR unit.

hCB1R [1] = target: T1, hCB1R (Homo sapiens, UniProt P21554); assay: Binding to the CB1 receptor ([3H]-SR141716A displacement)
T1 sequence (P21554 whole entry): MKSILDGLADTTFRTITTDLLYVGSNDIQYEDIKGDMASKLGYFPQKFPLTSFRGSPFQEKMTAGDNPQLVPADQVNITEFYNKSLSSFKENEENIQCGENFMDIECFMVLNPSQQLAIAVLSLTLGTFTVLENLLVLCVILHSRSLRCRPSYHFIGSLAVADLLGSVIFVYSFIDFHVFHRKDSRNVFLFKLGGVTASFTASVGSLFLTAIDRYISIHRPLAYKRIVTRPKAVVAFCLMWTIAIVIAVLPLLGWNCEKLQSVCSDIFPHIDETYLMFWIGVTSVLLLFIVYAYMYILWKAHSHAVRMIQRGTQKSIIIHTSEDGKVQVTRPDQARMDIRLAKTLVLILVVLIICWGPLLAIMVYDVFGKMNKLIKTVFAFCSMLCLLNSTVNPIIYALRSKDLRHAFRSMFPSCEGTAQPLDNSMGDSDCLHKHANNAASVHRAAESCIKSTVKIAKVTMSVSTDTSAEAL
How it was run: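 [3H]-SR141716A displacement at hCB1R; test compounds at final 10 μM to 0.005 μM in assay buffer with 1% DMSO, duplicate determinations. Low control 1 μM AM 251, high control binding without compound; IC50 from curve fit, converted to Ki via Cheng-Prusoff using Kd.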

hCB1R [2] = target: T1, hCB1R; assay: In vitro functional assay (FLIPR, intracellular Ca2+) with recombinant HEK293 cells, CB1; assay type: cell-based; set-up: expressed in transfected cells; host or cells: HEK293
Description: In Vitro Functional Assays with Recombinant Cells:

[3] = read-out: hCB2R: FLIPR, IC50, recombinant HEK293 cells expressing CB2 and Galpha16, 20 min preincubation, then reference agonist, Ca2+ change
[4] = recombinant HEK293 cells expressing CB1 and Galpha16, 20 min preincubation, then reference agonist, Ca2+ change, read-out: hCB1R: FLIPR, IC50
[5] = CHO-K1/cannabinoid CB1 protein 2 μg/well, [3H]-SR141716A 0.5 nM, Ki from IC50 by Cheng-Prusoff, average of double determination, read-out: hCB1R, binding Ki

Sequence of hCB2R (P34972 whole entry): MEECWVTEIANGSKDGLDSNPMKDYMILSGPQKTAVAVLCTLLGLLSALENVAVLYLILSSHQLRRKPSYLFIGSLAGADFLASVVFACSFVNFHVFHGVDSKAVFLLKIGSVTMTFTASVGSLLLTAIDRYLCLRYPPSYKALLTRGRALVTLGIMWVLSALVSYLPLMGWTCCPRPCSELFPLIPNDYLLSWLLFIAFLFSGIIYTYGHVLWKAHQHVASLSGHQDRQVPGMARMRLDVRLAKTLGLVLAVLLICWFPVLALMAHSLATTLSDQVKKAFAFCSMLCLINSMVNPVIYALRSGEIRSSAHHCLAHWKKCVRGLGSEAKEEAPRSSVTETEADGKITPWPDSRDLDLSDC

Question: How did the IC50 (hCB2R; [3]) turn out when `COC(=O)c1ccc(Nc2ccccc2CN2C(=O)N(c3ccc(C#N)c(C(F)(F)F)c3)C(=O)C2(C)C)cc1OC` [Example 140, methyl 4-{2-[3-(4-cyano-3-trifluoromethylphenyl)-5,5-dimethyl-2,4-dioxoimidazolidin-1-ylmethyl]phenylamino}-2-methoxybenzoate] was run?
Answer: Its IC50 is greater than 10000 nM.

Question: What about the Ki (hCB1R [1]) of the same compound?
Answer: Its Ki is 26 nM.

Question: How did the IC50 (hCB1R [2]; [4]) turn out when `CC1(C)C(=O)N(c2ccc(C#N)c(C(F)(F)F)c2)C(=O)N1Cc1ccccc1Nc1ccc(S(N)(=O)=O)cc1` [Example 68, 5,5-4-{2-[3-(4-Cyano-3-trifluoromethylphenyl)-5,5-dimethyl-2,4-dioxoimidazolidin-1-ylmethyl]phenylamino}benzene sulfonamide] was run?
Answer: The IC50 was 44 nM.

Question: What about the Ki (hCB1R [1]) of the same compound?
Answer: Its Ki is 16 nM.

Question: For `COC(=O)c1ccc(Nc2ccccc2CN2C(=O)N(c3ccc(C#N)c(C(F)(F)F)c3)C(=O)C2(C)C)cn1` [Example 90, methyl 5-{2-[3-(4-cyano-3-trifluoromethylphenyl)-5,5-dimethyl-2,4-dioxoimidazolidin-1-ylmethyl]phenylamino}pyridine-2-carboxylate], which IC50 (hCB2R; [3]) is on record?
Answer: The IC50 was greater than 10000 nM.

Question: What about the IC50 (hCB1R [2]) of the same compound?
Answer: Its IC50 is 39 nM.

Question: For `CC1(C)C(=O)N(c2ccc(C#N)c(C(F)(F)F)c2)C(=O)N1Cc1ccccc1Nc1ccc(CC(N)=O)cc1` [Example 97, 2-(4-{2-[3-(4-Cyano-3-trifluoromethylphenyl)-5,5-dimethyl-2,4-dioxoimidazolidin-1-ylmethyl]phenylamino}phenyl)acetamide], which IC50 (hCB2R; [3]) is on record?
Answer: The IC50 was greater than 10000 nM.

Question: What about the IC50 (hCB1R [2]) of the same compound?
Answer: Its IC50 is 7 nM.

Question: What does the source list for `CC1(C)C(=O)N(c2ccc(F)c(C(F)(F)F)c2)C(=O)N1Cc1ccccc1Nc1ccc(C(=N)NO)cc1` [Example 143, 4-{2-[3-(4-Fluoro-3-trifluoromethylphenyl)-5,5-dimethyl-2,4-dioxoimidazolidin-1-ylmethyl]phenylamino}-N-hydroxybenzamidine hydrochloride]?
Answer: IC50 (hCB2R): > 10000 nM; IC50 (hCB1R [2]; [4]): 13 nM

Question: With `CC1(C)C(=O)N(c2ccc(C#N)c(C(F)(F)F)c2)C(=O)N1Cc1ccccc1Nc1ccc(F)cc1` [Example 2, 4-{3-[2-(4-fluorophenylamino)benzyl]-4,4-dimethyl-2,5-dioxoimidazolidin-1-yl}-2-trifluoromethylbenzonitrile] as the compound, how does the IC50 (hCB2R; [3]) read?
Answer: Its IC50 is greater than 10000 nM.

Question: What about the IC50 (hCB1R [2]) of the same compound?
Answer: Its IC50 is 11 nM.

Question: For `CC1(C)C(=O)N(c2ccc(C#N)c(-c3ccccc3)c2)C(=O)N1Cc1ccc(F)cc1Nc1ccc(C(=O)O)cc1` [Example 227, 4-{2-[3-(6-cyanobiphenyl-3-yl)-5,5-dimethyl-2,4-dioxoimidazolidin-1-ylmethyl]-5-fluorophenylamino}benzoic acid], which IC50 (hCB1R [2]; [4]) is on record?
Answer: The IC50 was 16 nM.

Question: And the Ki (hCB1R [1]; [5])?
Answer: Its Ki is 36 nM.

Question: `CC1(C)C(=O)N(c2ccc(C#N)c(C(F)(F)F)c2)C(=O)N1Cc1ccc(Nc2ccccc2)cc1` [Example 30, 4-[4,4-Dimethyl-2,5-dioxo-3-(4-phenylaminobenzyl)imidazolidin-1-yl]-2-trifluoromethylbenzonitrile] was tested. Which IC50 (hCB2R) did it give?
Answer: The IC50 was greater than 10000 nM.

Question: And the IC50 (hCB1R [2]; [4])?
Answer: Its IC50 is 208 nM.

Question: Which results are given for `CC1OC(=O)c2cc(Nc3ccccc3CN3C(=O)N(c4ccc(C#N)c(C(F)(F)F)c4)C(=O)C3(C)C)ccc2O1` (stereo not shown) [Example 142, 4-{4,4-dimethyl-3-[2-(2-methyl-4-oxo-4H-1,3-benzodioxin-6-ylamino)benzyl]-2,5-dioxoimidazolidin-1-yl}-2-trifluoromethylbenzonitrile]?
Answer: IC50 (hCB2R; [3]): > 10000 nM; Ki (hCB1R [1]): 3 nM

Question: Which IC50 (hCB2R; [3]) does the source give for `CC1(C)C(=O)N(c2ccc(C#N)c(C(F)(F)F)c2)C(=O)N1Cc1ccccc1Nc1ccc(CC#N)cc1` [Example 78, 4-{3-[2-(4-cyanomethylphenylamino)benzyl]-4,4-dimethyl-2,5-dioxoimidazolidin-1-yl}-2-trifluoromethylbenzonitrile] here?
Answer: The IC50 was greater than 10000 nM.

Question: And the IC50 (hCB1R [2])?
Answer: Its IC50 is 4 nM.

Question: Which IC50 (hCB2R; [3]) does the source give for `CC1(C)C(=O)N(c2ccc(C#N)c(C(F)(F)F)c2)C(=O)N1Cc1c(Cl)cc(Cl)cc1Nc1ccc(F)cc1F` [Example 36, 4-{3-[2,4-dichloro-6-(2,4-difluorophenylamino)benzyl]-4,4-dimethyl-2,5-dioxoimidazolidin-1-yl}-2-trifluoromethylbenzonitrile] here?
Answer: Its IC50 is greater than 10000 nM.

Question: And the IC50 (hCB1R [2])?
Answer: The IC50 was 11 nM.

Question: With `CC1(C)C(=O)N(c2ccc(C#N)c(C(F)(F)F)c2)C(=O)N1Cc1ccccc1Nc1ccc(C(=O)NC(CO)CO)cc1` [Example 137, 4-{2-[3-(4-cyano-3-trifluoromethylphenyl)-5,5-dimethyl-2,4-dioxoimidazolidin-1-ylmethyl]phenylamino}-N-(2-hydroxy-1-hydroxymethylethyl)benzamide] as the compound, how does the IC50 (hCB2R; [3]) read?
Answer: The IC50 was greater than 10000 nM.

Question: What about the Ki (hCB1R [1]) of the same compound?
Answer: Its Ki is 51 nM.

Question: With `CC1(C)C(=O)N(c2ccc(C#N)c(C(F)(F)F)c2)C(=O)N1Cc1ccccc1Nc1ccc(S(N)(=O)=O)cc1F` [Example 81, 4-{2-[3-(4-cyano-3-trifluoromethylphenyl)-5,5-dimethyl-2,4-dioxoimidazolidin-1-ylmethyl]phenylamino}-3-fluorobenzenesulfonamide] as the compound, how does the IC50 (hCB2R) read?
Answer: The IC50 was greater than 10000 nM.

Question: And the IC50 (hCB1R [2]; [4])?
Answer: The IC50 was 144 nM.

Question: With `CC1(C)C(=O)N(c2ccc(F)c(C(F)(F)F)c2)C(=O)N1Cc1ccccc1Nc1ccc(C(=N)N)cc1` [Example 144, 4-{2-[3-(4-Fluoro-3-trifluoromethylphenyl)-5,5-dimethyl-2,4-dioxoimidazolidin-1-ylmethyl]phenylamino}benzamidine hydrochloride] as the compound, how does the IC50 (hCB2R) read?
Answer: Its IC50 is greater than 10000 nM.

Question: And the Ki (hCB1R [1]; [5])?
Answer: The Ki was 19 nM.

Question: `COc1ccc(Nc2ccccc2CN2C(=O)N(c3ccc(C#N)c(C(F)(F)F)c3)C(=O)C2(C)C)cn1` [Example 83, 4-{3-[2-(6-methoxypyridin-3-ylamino)benzyl]-4,4-dimethyl-2,5-dioxoimidazolidin-1-yl}-2-trifluoromethylbenzonitrile] was tested. Which IC50 (hCB2R; [3]) did it give?
Answer: The IC50 was greater than 10000 nM.

Question: And the IC50 (hCB1R [2])?
Answer: The IC50 was 9 nM.

Question: With `CC1(C)C(=O)N(c2ccc(C#N)c(C(F)(F)F)c2)C(=O)N1Cc1ccccc1Nc1ccc(C#N)cc1F` [Example 73, 4-{3-[2-(2-fluoro-4-cyanophenylamino)benzyl]-4,4-dimethyl-2,5-dioxoimidazolidin-1-yl}-2-trifluoromethylbenzonitrile] as the compound, how does the IC50 (hCB2R; [3]) read?
Answer: The IC50 was greater than 10000 nM.

Question: What about the IC50 (hCB1R [2]) of the same compound?
Answer: Its IC50 is 7 nM.

Question: For `CC1(C)C(=O)N(c2ccc(C#N)c(C(F)(F)F)c2)C(=O)N1Cc1ccccc1Nc1ccc(OC(F)(F)F)cc1F` [Example 85, 4-{3-[2-(2-fluoro-4-trifluoromethoxyphenylamino)benzyl]-4,4-dimethyl-2,5-dioxoimidazolidin-1-yl}-2-trifluoromethylbenzonitrile], which IC50 (hCB2R; [3]) is on record?
Answer: The IC50 was greater than 10000 nM.

Question: And the IC50 (hCB1R [2])?
Answer: Its IC50 is 7 nM.

Question: How did the IC50 (hCB2R; [3]) turn out when `CC1(C)C(=O)N(c2ccc(C#N)c(C(F)(F)F)c2)C(=O)N1Cc1ccccc1Nc1ccc(C(F)(F)F)nc1` [Example 91, 4-{4,4-dimethyl-2,5-dioxo-3-[2-(6-trifluoromethylpyridin-3-ylamino)benzyl]-imidazolidin-1-yl}-2-trifluoromethylbenzonitrile] was run?
Answer: Its IC50 is greater than 10000 nM.

Question: And the IC50 (hCB1R [2])?
Answer: Its IC50 is 30 nM.

Question: Which IC50 (hCB2R; [3]) does the source give for `CC1(C)C(=O)N(c2ccc(C#N)c(C(F)(F)F)c2)C(=O)N1Cc1ccccc1Nc1ccc(C(N)=O)cc1` [Example 136, 4-{2-[3-(4-Cyano-3-trifluoromethylphenyl)-5,5-dimethyl-2,4-dioxoimidazolidin-1-ylmethyl]phenylamino}benzamide] here?
Answer: Its IC50 is greater than 10000 nM.

Question: And the IC50 (hCB1R [2])?
Answer: Its IC50 is 5 nM.

Question: Which IC50 (hCB2R) does the source give for `CC1(C)C(=O)N(c2ccc(C#N)c(C(F)(F)F)c2)C(=O)N1Cc1ccccc1Nc1ccc(CC(=O)O)cc1` [Example 92, (4-{2-[3-(4-cyano-3-trifluoromethylphenyl)-5,5-dimethyl-2,4-dioxoimidazolidin-1-ylmethyl]phenylamino}phenyl)acetic acid] here?
Answer: The IC50 was greater than 10000 nM.

Question: What about the IC50 (hCB1R [2]; [4]) of the same compound?
Answer: The IC50 was 137 nM.

Question: Which results are given for `CC1(C)C(=O)N(c2ccc(C#N)c(C(F)(F)F)c2)C(=O)N1Cc1ccc(C(F)(F)F)cc1Nc1ccc(F)cc1` [Example 55, 4-{3-[2-(4-Fluorophenylamino)-4-trifluoromethylbenzyl]-4,4-dimethyl-2,5-dioxoimidazolidin-1-yl}-2-trifluoromethylbenzonitrile]?
Answer: IC50 (hCB1R [2]; [4]): 10 nM; Ki (hCB1R [1]): 8 nM

Question: Which results are given for `CCOC(=O)COc1ccc(Nc2ccccc2CN2C(=O)N(c3ccc(C#N)c(C(F)(F)F)c3)C(=O)C2(C)C)cc1` [Example 138, ethyl (4-{2-[3-(4-cyano-3-trifluoromethylphenyl)-5,5-dimethyl-2,4-dioxoimidazolidin-1-ylmethyl]phenylamino}phenoxy)acetate]?
Answer: IC50 (hCB2R; [3]): > 10000 nM; IC50 (hCB1R [2]): 4 nM

Question: Which IC50 (hCB2R; [3]) does the source give for `COc1ccc(Nc2ccccc2CN2C(=O)N(c3ccc(C#N)c(C(F)(F)F)c3)C(=O)C2(C)C)c(F)c1` [Example 74, 4-{3-[2-(2-fluoro-4-methoxyphenylamino)benzyl]-4,4-dimethyl-2,5-dioxoimidazolidin-1-yl}-2-trifluoromethylbenzonitrile] here?
Answer: Its IC50 is greater than 10000 nM.

Question: What about the IC50 (hCB1R [2]) of the same compound?
Answer: The IC50 was 4 nM.

Question: `COC(=O)Cc1ccc(Nc2ccccc2CN2C(=O)N(c3ccc(C#N)c(C(F)(F)F)c3)C(=O)C2(C)C)cc1` [Example 82, methyl (4-{2-[3-(4-cyano-3-trifluoromethylphenyl)-5,5-dimethyl-2,4-dioxoimidazolidin-1-ylmethyl]phenylamino}phenyl)acetate] was tested. Which IC50 (hCB2R; [3]) did it give?
Answer: The IC50 was greater than 10000 nM.

Question: And the IC50 (hCB1R [2])?
Answer: The IC50 was 52 nM.

Question: `COc1ccc(Nc2ccccc2CN2C(=O)N(c3ccc(C#N)c(C(F)(F)F)c3)C(=O)C2(C)C)cc1OC` [Example 75, 4-{3-[2-(3,4-dimethoxyphenylamino)benzyl]-4,4-dimethyl-2,5-dioxoimidazolidin-1-yl}-2-trifluoromethylbenzonitrile] was tested. Which IC50 (hCB2R; [3]) did it give?
Answer: The IC50 was greater than 10000 nM.

Question: And the IC50 (hCB1R [2])?
Answer: The IC50 was 49 nM.

Question: Which IC50 (hCB2R; [3]) does the source give for `CC1(C)C(=O)N(c2ccc(C#N)c(C(F)(F)F)c2)C(=O)N1Cc1ccc(C(F)(F)F)cc1Nc1ccc(Cl)cc1` [Example 57, 4-{3-[2-(4-chlorophenylamino)-4-trifluoromethylbenzyl]-4,4-dimethyl-2,5-dioxoimidazolidin-1-yl}-2-trifluoromethylbenzonitrile] here?
Answer: Its IC50 is greater than 10000 nM.

Question: And the IC50 (hCB1R [2])?
Answer: Its IC50 is 36 nM.
